# Patent US20260265538A1, “Aqueous Industrial Product Stabilized Against Microbial Contamination” (Thor GmbH, priority 2023, published 2026)
# Tested on: Bacteria mixture 2 (alkaliphilic bacteria of the Nesterenkonia & Alkalibacterium genus)
# Test: Repetitive stress test of paints with bacteria mixture 2, semiquantitative evaluation (examples 4 and 5)
# Type: cell-based
# Parameters: key to Bacterial growth after inoculation: 0: No growth; Minimal growth, 1 to 10 colonies visible over the entire streak; 2: Light growth, maximum 100 colonies; Moderate growth, maximum 300 to 400 colonies; Uniform growth, >400 colonies, single colonies still clearly recognizable; 5: Heavy growth, too many colonies to count, but no growth over the entire streak; 6: Full growth, barely any single colonies still apparent, growth over the entire streak
# Conditions: Table 4
# Text: Paints 1 to 3 were mixed and homogenized with various concentrations of the guanidinium salts to be tested.
# The batches obtained of the paint thus prepared were inoculated repeatedly with a mixture of different wild-type bacterial strains that are of practical relevance with regard to contamination. These bacteria had previously been isolated from commercial emulsion paints containing conventional preservatives (bacteria mixture 1, Pseudomonas genus), which are microbially contaminated in practice, and commercial so-called preservative-free alkaline emulsion paints (bacteria mixture 2, alkaliphilic bacteria of the Nesterenkonia & Alkalibacterium genus), which are microbially contaminated in practice.
# • Nesterenkonia sp. DSM 108520 • Nesterenkonia sp. DSM 108521 • Alkalibacterium pelagium DSM 108522 • Nesterenkonia massiliensis DSM 110679 • Nesterenkonia sp. DSM 108519
# The inoculum was added to the respective sample in each inoculation at 2% (v/w) as a fresh cell suspension in a physiological saline solution (0.9% NaCl). The cell count of the added inoculum in example 1 was 10^5/ml, in examples 2 to 5 10^9/ml, and in example 6 10^6/ml, each in equal portions consisting of the individual bacterial strains. The cell suspension was produced by growing the individual bacteria at 30° C. for 24 h in liquid culture on a shaker. The medium used to grow the bacteria from bacteria mixture 1 was Müller-Hinton liquid medium. Bacteria from bacteria mixture 2 were grown in Müller-Hinton liquid medium that had been adjusted to pH 9.5-9.7 with an alkaline buffer solution beforehand. After growing, the individual liquid cultures were centrifuged, and the cells were resuspended in physiological saline solution. In order to adjust the mixture to the desired cell count, the individual bacteria suspensions, if necessary, were diluted accordingly before being combined with saline solution. The cell count of the inoculum was determined in each case by chamber counting.
# In examples 2 to 6, what is called a repetitive stress test with bacteria was conducted by inoculating the samples at particular time intervals repeatedly with a bacteria suspension having a cell count of 10^9/ml (2% v/w) and monitoring the evolution of the bacteria by a semiquantitative evaluation method. After each inoculation, the samples were incubated at 30° C. for 6 days (bacteria mixture 1 and 3) or 7 and 14 days (bacteria mixture 2), and after these periods bacterial infestation was evaluated semiquantitatively in each case. For this purpose, an aliquot was taken from each sample after homogenization using a sterile plastic inoculation loop (10 μl) and streaked evenly on agar plates (bacteria mixture 1 and 3 on tryptic soy agar, bacteria mixture 2 on DSMZ 31 alkaline nutrient agar). The streaked agar plates were then incubated at 30° C. for 48 h (bacteria mixture 1 and 3) or 5 to 7 days (bacteria mixture 2). After incubation, the bacterial colonies grown on the agar plates were visually evaluated and quantified according to the following scheme:
# A total of 3 inoculation cycles was performed in each repetitive stress test.
# Inoculation 2% (w/v) with Bacteria Mixture 2, 10^9 CFU/ml
structure (smiles),measurement,setting,value
N=C(N)N.N=C(N)N.O=C(O)O [guanidine carbonate],Bacterial growth after inoculation,"Paint 1, +0.1% guanidine carbonate (656 ppm guanidine), pH 9.1, 1. inoculation, 7 d",0/0
same,Bacterial growth after inoculation,"Paint 1, +0.1% guanidine carbonate (656 ppm guanidine), pH 9.1, 1. inoculation, 14 d",0/0
same,Bacterial growth after inoculation,"Paint 1, +0.1% guanidine carbonate (656 ppm guanidine), pH 9.1, 2. inoculation, 7 d",0/0
same,Bacterial growth after inoculation,"Paint 1, +0.1% guanidine carbonate (656 ppm guanidine), pH 9.1, 2. inoculation, 14 d",0/0
same,Bacterial growth after inoculation,"Paint 1, +0.1% guanidine carbonate (656 ppm guanidine), pH 9.1, 3. inoculation, 7 d",6/6
same,Bacterial growth after inoculation,"Paint 1, +0.1% guanidine carbonate (656 ppm guanidine), pH 9.1, 3. inoculation, 14 d",6/6
same,Bacterial growth after inoculation,"Paint 1, +0.15% guanidine carbonate (984 ppm guanidine), pH 9.4, 1. inoculation, 7 d",0/0
same,Bacterial growth after inoculation,"Paint 1, +0.15% guanidine carbonate (984 ppm guanidine), pH 9.4, 1. inoculation, 14 d",0/0
same,Bacterial growth after inoculation,"Paint 1, +0.15% guanidine carbonate (984 ppm guanidine), pH 9.4, 2. inoculation, 7 d",0/0
same,Bacterial growth after inoculation,"Paint 1, +0.15% guanidine carbonate (984 ppm guanidine), pH 9.4, 2. inoculation, 14 d",0/0
same,Bacterial growth after inoculation,"Paint 1, +0.15% guanidine carbonate (984 ppm guanidine), pH 9.4, 3. inoculation, 7 d",0/0
same,Bacterial growth after inoculation,"Paint 1, +0.15% guanidine carbonate (984 ppm guanidine), pH 9.4, 3. inoculation, 14 d",0/0
same,Bacterial growth after inoculation,"Paint 1, +0.2% guanidine carbonate (1312 ppm guanidine), pH 9.6, 1. inoculation, 7 d",0/0
same,Bacterial growth after inoculation,"Paint 1, +0.2% guanidine carbonate (1312 ppm guanidine), pH 9.6, 1. inoculation, 14 d",0/0
same,Bacterial growth after inoculation,"Paint 1, +0.2% guanidine carbonate (1312 ppm guanidine), pH 9.6, 2. inoculation, 7 d",0/0
same,Bacterial growth after inoculation,"Paint 1, +0.2% guanidine carbonate (1312 ppm guanidine), pH 9.6, 2. inoculation, 14 d",0/0
same,Bacterial growth after inoculation,"Paint 1, +0.2% guanidine carbonate (1312 ppm guanidine), pH 9.6, 3. inoculation, 7 d",0/0
same,Bacterial growth after inoculation,"Paint 1, +0.2% guanidine carbonate (1312 ppm guanidine), pH 9.6, 3. inoculation, 14 d",0/0
same,Bacterial growth after inoculation,"Paint 1, +0.25% guanidine carbonate (1640 ppm guanidine), pH 9.7, 1. inoculation, 7 d",0/0
same,Bacterial growth after inoculation,"Paint 1, +0.25% guanidine carbonate (1640 ppm guanidine), pH 9.7, 1. inoculation, 14 d",0/0
same,Bacterial growth after inoculation,"Paint 1, +0.25% guanidine carbonate (1640 ppm guanidine), pH 9.7, 2. inoculation, 7 d",0/0
same,Bacterial growth after inoculation,"Paint 1, +0.25% guanidine carbonate (1640 ppm guanidine), pH 9.7, 2. inoculation, 14 d",0/0
same,Bacterial growth after inoculation,"Paint 1, +0.25% guanidine carbonate (1640 ppm guanidine), pH 9.7, 3. inoculation, 7 d",0/0
same,Bacterial growth after inoculation,"Paint 1, +0.25% guanidine carbonate (1640 ppm guanidine), pH 9.7, 3. inoculation, 14 d",0/0
same,Bacterial growth after inoculation,"Paint 1, +0.3% guanidine carbonate (1968 ppm guanidine), pH 9.7, 1. inoculation, 7 d",0/0
same,Bacterial growth after inoculation,"Paint 1, +0.3% guanidine carbonate (1968 ppm guanidine), pH 9.7, 1. inoculation, 14 d",0/0
same,Bacterial growth after inoculation,"Paint 1, +0.3% guanidine carbonate (1968 ppm guanidine), pH 9.7, 2. inoculation, 7 d",0/0
same,Bacterial growth after inoculation,"Paint 1, +0.3% guanidine carbonate (1968 ppm guanidine), pH 9.7, 2. inoculation, 14 d",0/0
same,Bacterial growth after inoculation,"Paint 1, +0.3% guanidine carbonate (1968 ppm guanidine), pH 9.7, 3. inoculation, 7 d",0/0
same,Bacterial growth after inoculation,"Paint 1, +0.3% guanidine carbonate (1968 ppm guanidine), pH 9.7, 3. inoculation, 14 d",0/0
same,Bacterial growth after inoculation,"Paint 1, +0.4% guanidine carbonate (2624 ppm guanidine), pH 9.9, 1. inoculation, 7 d",0/0
same,Bacterial growth after inoculation,"Paint 1, +0.4% guanidine carbonate (2624 ppm guanidine), pH 9.9, 1. inoculation, 14 d",0/0
same,Bacterial growth after inoculation,"Paint 1, +0.4% guanidine carbonate (2624 ppm guanidine), pH 9.9, 2. inoculation, 7 d",0/0
same,Bacterial growth after inoculation,"Paint 1, +0.4% guanidine carbonate (2624 ppm guanidine), pH 9.9, 2. inoculation, 14 d",0/0
same,Bacterial growth after inoculation,"Paint 1, +0.4% guanidine carbonate (2624 ppm guanidine), pH 9.9, 3. inoculation, 7 d",0/0
same,Bacterial growth after inoculation,"Paint 1, +0.4% guanidine carbonate (2624 ppm guanidine), pH 9.9, 3. inoculation, 14 d",0/0
same,Bacterial growth after inoculation,"Paint 1, +0.5% guanidine carbonate (3280 ppm guanidine), pH 10.1, 1. inoculation, 7 d",0/0
same,Bacterial growth after inoculation,"Paint 1, +0.5% guanidine carbonate (3280 ppm guanidine), pH 10.1, 1. inoculation, 14 d",0/0
same,Bacterial growth after inoculation,"Paint 1, +0.5% guanidine carbonate (3280 ppm guanidine), pH 10.1, 2. inoculation, 7 d",0/0
same,Bacterial growth after inoculation,"Paint 1, +0.5% guanidine carbonate (3280 ppm guanidine), pH 10.1, 2. inoculation, 14 d",0/0
same,Bacterial growth after inoculation,"Paint 1, +0.5% guanidine carbonate (3280 ppm guanidine), pH 10.1, 3. inoculation, 7 d",0/0
same,Bacterial growth after inoculation,"Paint 1, +0.5% guanidine carbonate (3280 ppm guanidine), pH 10.1, 3. inoculation, 14 d",0/0
same,Bacterial growth after inoculation,"Paint 1, +1.0% guanidine carbonate (6560 ppm guanidine), pH 10.4, 1. inoculation, 7 d",0/0
same,Bacterial growth after inoculation,"Paint 1, +1.0% guanidine carbonate (6560 ppm guanidine), pH 10.4, 1. inoculation, 14 d",0/0
same,Bacterial growth after inoculation,"Paint 1, +1.0% guanidine carbonate (6560 ppm guanidine), pH 10.4, 2. inoculation, 7 d",0/0
same,Bacterial growth after inoculation,"Paint 1, +1.0% guanidine carbonate (6560 ppm guanidine), pH 10.4, 2. inoculation, 14 d",0/0
same,Bacterial growth after inoculation,"Paint 1, +1.0% guanidine carbonate (6560 ppm guanidine), pH 10.4, 3. inoculation, 7 d",0/0
same,Bacterial growth after inoculation,"Paint 1, +1.0% guanidine carbonate (6560 ppm guanidine), pH 10.4, 3. inoculation, 14 d",0/0
same,Bacterial growth after inoculation,"Paint 2, +0.1% guanidine carbonate (656 ppm guanidine), pH 8.9, 1. inoculation, 7 d","2 (Light growth, maximum 100 colonies)"
same,Bacterial growth after inoculation,"Paint 2, +0.1% guanidine carbonate (656 ppm guanidine), pH 8.9, 1. inoculation, 14 d",0
same,Bacterial growth after inoculation,"Paint 2, +0.1% guanidine carbonate (656 ppm guanidine), pH 8.9, 2. inoculation, 7 d",6
